Residue numbers refer to the chain shown, from its start. Where two headings read alike, the source gives them in different places. Values belong to the molecule of their own block, whether it stands above or below them.
Experiments:
Format in all cases: cell-based
[1] = molecular target: T1, OR11A1 (Homo sapiens, UniProt Q9GZK7); assay: Luciferase reporter concentration-response analysis on OR11A1
T1 construct: expressed in transfected cells; host or cells: HEK293T-RTP1A1/RTP2
T1 sequence (Q9GZK7 1-315): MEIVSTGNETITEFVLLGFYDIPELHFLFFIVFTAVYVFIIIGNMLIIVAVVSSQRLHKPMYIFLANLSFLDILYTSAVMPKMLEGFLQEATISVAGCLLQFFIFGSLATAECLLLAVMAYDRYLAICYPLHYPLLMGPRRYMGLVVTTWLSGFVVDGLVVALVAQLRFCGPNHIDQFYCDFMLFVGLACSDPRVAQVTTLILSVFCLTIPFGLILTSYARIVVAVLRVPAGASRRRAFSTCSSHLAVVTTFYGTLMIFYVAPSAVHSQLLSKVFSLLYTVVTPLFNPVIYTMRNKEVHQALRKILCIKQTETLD
Experimental: (§1) HEK293T-RTP1A1/RTP2 cells were maintained in minimal essential medium (EMEM, Lonza) containing 10% fetal bovine serum (M10). These cells were generated by transfecting HEK293T with an expression vector containing the sequences of the chaperone proteins RTP1A1 and RTP2 and a resistance gene to puromycin, using Lipofectamine 2000.
(§2) Odorant molecules were diluted at a concentration of 1 mole/liter (M) into dimethyl sulfoxide (DMSO) to generate stock solutions.
(§3) For concentration-response analysis, serial dilutions of the tested molecules were prepared from stock solutions in EMEM plated into 96-well plates.
(§4) For the initial deorphanisation screening and dose-response analysis, a Luciferase-based gene reporter assay (Promega, Leiden, The Nederlands) was used. Briefly, cells were platted on Poly-D-lysine-coated 96-well and transfected with a plasmid containing the CRE-luciferase and a plasmid containing the olfactory receptor. Sixteen hours after transfection, the culture medium was replaced by serum-free EMEM containing the tested compounds at a determined concentration. After four hours of incubation at 37° C. degree, cells were lysed and processed for luminescence measurement. Luminescene emission was recorded. Results were expressed as luciferase activity (Relative […] Unit (RLU)) or as percentage of the response induced by 10 μM of the adenylate cyclase activator Forskolin. An empty plasmid is used as negative control.
(§5) 35 musk compounds from the four structurally different chemical groups previously described were tested in concentration-response analyses (Table 2). In each experiment, an empty vector was used as negative control (pEFIBRHO). […] Full results including the calculated EC50 are given in Table 2; “non active” represent negative experiments, no activation after testing.
These compounds were tested in concentration-response analysis in luciferase assays, as described previously. In each experiment, an empty vector was used as negative control (pEFIBRHO).

[2] = molecular target: T2, OR5A2_variant 1 (Homo sapiens, UniProt Q8NGI9); assay: Luciferase reporter concentration-response analysis on OR5A2_variant 1
T2 construct: expressed in transfected cells; host or cells: HEK293T-RTP1A1/RTP2
T2 sequence (Q8NGI9 1-324): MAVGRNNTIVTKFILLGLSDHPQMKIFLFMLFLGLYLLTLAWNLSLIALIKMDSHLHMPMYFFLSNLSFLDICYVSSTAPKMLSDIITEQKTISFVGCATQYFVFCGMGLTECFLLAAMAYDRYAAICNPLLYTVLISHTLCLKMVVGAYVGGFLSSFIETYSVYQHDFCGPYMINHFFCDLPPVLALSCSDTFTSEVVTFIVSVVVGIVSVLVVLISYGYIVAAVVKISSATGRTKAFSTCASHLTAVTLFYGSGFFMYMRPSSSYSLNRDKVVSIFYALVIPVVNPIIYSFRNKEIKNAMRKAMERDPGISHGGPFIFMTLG
Experimental: as §1, §2, §3, §4, §5

[3] = molecular target: T3, OR2A5 (Homo sapiens, UniProt Q96R48, A202S/A255T/I126V); assay: Luciferase reporter concentration-response analysis on OR2A5; details: CRE-luciferase
T3 construct: expressed in transfected cells; host or cells: HEK293T-RTP1A1/RTP2
T3 sequence (Q96R48 1-311 I126V/A202S/A255T): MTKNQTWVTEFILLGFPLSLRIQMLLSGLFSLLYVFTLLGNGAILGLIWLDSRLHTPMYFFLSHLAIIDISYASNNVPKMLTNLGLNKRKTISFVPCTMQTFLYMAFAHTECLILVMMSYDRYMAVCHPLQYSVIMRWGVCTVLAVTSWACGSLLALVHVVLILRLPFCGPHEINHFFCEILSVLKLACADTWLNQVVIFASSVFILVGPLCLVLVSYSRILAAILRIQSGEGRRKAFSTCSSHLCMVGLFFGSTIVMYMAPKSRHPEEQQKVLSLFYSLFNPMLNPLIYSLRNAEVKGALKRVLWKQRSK
Experimental: as §1, with “2000. The recombinant cell population, used in these experiments, was selected by adding 10 μg/ml of puromycin into the culture medium and subsequently subcloned (WO 2014/191047 A1).” for “2000.”
as §2, §3, §4
In 1998, Krautwurst and collaborators have provided a model system for the study of ligand specificity and structure-function relationships for olfactory receptors (Krautwurst et al., 1998 Cell 95, 917-26). […] Based on their publication, a chimeric OR5A2_variant 1 olfactory receptor was created containing the TM2-TM7 amino acid sequence of OR5A2_variant 1 flanked by the N-teminal and C-terminal sequence of the olfactory receptor OR2A5 (cf. SEQ ID NO: 12). This chimeric OR5A2_variant 1 receptor shared 86 percent identity with the native OR5A2_variant 1 receptor (FIG. 6A and SEQ ID NO: 10).
(§6) To test if the amino acids substitution could impact the musk sensitivity, and specificity and to validate the Krautwurst's model, luciferase assays were performed as described previously after transfection of the chimeric OR5A2_variant 1. Cells were treated with semi-logarithmic serial dilutions of musk compounds from the four structurally different groups described earlier.

[4] = molecular target: T4, OR5A2_variant 2 (Homo sapiens, UniProt Q8NGI9, P172L); assay: Luciferase reporter concentration-response analysis on haplotype OR5A2_variant 2 (P172L); details: CRE-luciferase; empty vector pEFIBRHO as control
T4 construct: (P172L, OR5A2_variant 2); expressed in transfected cells; host or cells: HEK293T-RTP1A1/RTP2
T4 sequence (Q8NGI9 1-324 P172L): T2 sequence (Q8NGI9 1-324) with P172L
Experimental: as §1, §2, §3, §4
OR genes are highly variable, with many alleles resulting in differences in smell perception from person to person. These differences can be attributed to genetic variations like, for example, nucleotide polymorphisms. […] Amino acids alignment of the 2 haplotypes are represented in FIG. 4.
To test if the substitution could impact the musk sensitivity, luciferase assays were performed as described previously after transfection of both OR5A2 variants. Cells were treated with semi-logarithmic serial dilutions of musk compounds from the four structurally different groups described earlier. In each experiment, an empty vector was used as negative control (pEFIBRHO).

[5] = molecular target: T5, chimeric OR5A2_variant 1 (Homo sapiens, UniProt Q8NGI9, F293L/H55R/I289L/M58T); assay: Luciferase reporter concentration-response analysis on chimeric OR5A2_variant 1; details: CRE-luciferase; empty vector pEFIBRHO as control
T5 construct: expressed in transfected cells; host or cells: HEK293T-RTP1A1/RTP2
T5 sequence (Q8NGI9 with tags, fused parts or gaps H55R/M58T/I289L/F293L): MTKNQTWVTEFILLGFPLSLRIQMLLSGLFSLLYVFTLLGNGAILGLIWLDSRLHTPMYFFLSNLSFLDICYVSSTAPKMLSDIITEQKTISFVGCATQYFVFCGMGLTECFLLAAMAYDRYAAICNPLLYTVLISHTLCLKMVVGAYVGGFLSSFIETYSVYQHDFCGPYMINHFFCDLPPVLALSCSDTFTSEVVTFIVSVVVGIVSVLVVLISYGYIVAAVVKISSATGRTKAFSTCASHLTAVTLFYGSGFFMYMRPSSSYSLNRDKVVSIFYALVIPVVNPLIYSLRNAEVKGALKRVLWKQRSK
Experimental: as §1, §2, §3, §4, §6
In each experiment, an empty vector was used as negative control (pEFIBRHO).

[6] = molecular target: T6, OR5AN1 (Homo sapiens, UniProt Q8NGI8, E89G); assay: Luciferase reporter concentration-response analysis on OR5AN1; details: concentration-response analysis, luciferase reporter, values given as negative (log) numbers, Non Active = no activation after testing; for EC50: read-out: calculated EC50, OR5AN1 (converted)
T6 construct: expressed in transfected cells; host or cells: HEK293T-RTP1A1/RTP2
T6 sequence (Q8NGI8 1-311 E89G): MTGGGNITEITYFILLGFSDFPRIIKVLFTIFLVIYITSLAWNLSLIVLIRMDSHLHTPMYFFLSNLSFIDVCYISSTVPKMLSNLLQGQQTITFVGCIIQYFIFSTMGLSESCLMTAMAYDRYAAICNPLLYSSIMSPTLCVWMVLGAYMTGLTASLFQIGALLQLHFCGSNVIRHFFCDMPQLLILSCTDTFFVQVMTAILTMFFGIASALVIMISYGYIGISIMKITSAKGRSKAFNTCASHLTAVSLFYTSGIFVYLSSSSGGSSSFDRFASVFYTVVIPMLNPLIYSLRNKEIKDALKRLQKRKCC
Experimental: as §1, with “2000. The recombinant cell population, used in these experiments, was selected by adding 10 μg/ml of puromycin into the culture medium and subsequently subcloned (WO 2014/191047 A1).” for “2000.”
as §2, §3, §4
In these analyses we also included ORs previously described as musk-specific receptors OR5AN1 (SEQ ID n° 7) (WO 2015/020158 A1, Shirasu et al. 2014 Neuron 81, 165-78, Sato-Akuhara N et al. 2016 J Neurosci. 36(16), 4482-91) and OR11A1 (SEQ ID n° 8) (WO 2016/201152 A1). […] Therefore, OR5A1 was included in the analyses. 35 musk compounds from the four structurally different chemical groups previously described were tested in concentration-response analyses (Table 2). In each experiment, an empty vector was used as negative control (pEFIBRHO). […] Full results including the calculated EC50 are given in Table 2; “non active” represent negative experiments, no activation after testing. […]

[7] = concentration-response analysis, luciferase reporter, values given as negative (log) numbers, read-out: calculated EC50, OR5A2 (converted)
[8] = concentration-response analysis, luciferase reporter, values given as negative (log) numbers, Non Active = no activation after testing, read-out: calculated EC50, OR11A1 (converted)
[9] = concentration-response analysis, luciferase reporter, values given as negative (log) numbers

Molecule: CC1CC(C)(C)c2ccc(C=O)cc2C1(C)C (stereo not shown) [Fixal]
EC50 [1]: 8.91 µM
EC50 [2]: 10.2 µM

Molecule: CC1COCc2cc3c(cc21)C(C)(C)C(C)C3(C)C (stereo not shown) [Galaxolide ®]
EC50 [2, 7]: 1.05 µM

Molecule: CC1COCc2cc3c(cc21)C(C)(C)C(C)C3(C)C (stereo not shown) [Galaxolide®]
activation of OR2A5, concentration-response [3]: but not the OR2A5
activation of OR5A2_variant 2 (P172L), concentration-response [4]: not activated
activation of OR5A2 (OR5A2_variant 1), concentration-response ([2]; CRE-luciferase, semi-logarithmic serial dilutions, empty vector pEFIBRHO as control): shows dose response curves
activation of chimeric OR5A2_variant 1, concentration-response [5]: shows dose response curves

Molecule: O=C1CCCCCC/C=C\CCCCCCC1 [Globanone (Animusk)]
EC50 [6]: 2.24 µM
EC50 [2, 7]: 3.98 µM

Molecule: O=C1CCCCCCCCC/C=C/CCCO1 [Habanolide]
EC50 [6]: 66.1 µM
EC50 [2]: 16.2 µM

Molecule: Cc1c([N+](=O)[O-])cc2c(c1[N+](=O)[O-])C(C)(C)CC2(C)C [Moskene, 1,1,3,3,5-pentamethyl-4,6-dinitro-2H-indene]
EC50 [2, 7]: 1.86 µM

Molecule: COc1c(C(C)(C)C)cc([N+](=O)[O-])c(C)c1[N+](=O)[O-] [Musk Ambrette, 2,6-dinitro-3-methoxy-4-tert-butyltoluene]
EC50 [6]: 692 µM
EC50 [2, 7]: 8.71 µM

Molecule: CC(=O)c1cc2c(cc1C)C(C)(C)C(C)C2(C)C (stereo not shown) [Phantolide]
EC50 [1, 8]: 7.59 µM
EC50 [2, 7]: 4.57 µM

Molecule: CC(=O)c1cc2c(cc1C)C(C)(C)C(C)CC2(C)C (stereo not shown) [Tonalide ®]
EC50 [1, 8]: 18.2 µM
EC50 [2, 7]: 0.759 µM

Molecule: CC(=O)c1cc(C(C)(C)C)cc2c1CCC2(C)C [crysolide]
EC50 [6]: 120 µM
EC50 [2, 7]: 22.4 µM

Molecule: CC(=O)c1cc2c(cc1C)C(C)(C)C(C)C2C(C)C (stereo not shown) [traseolide]
EC50 [1, 8]: 7.08 µM
EC50 [2, 7]: 1.95 µM

Molecule: Cyclopenta- decanone
calculated EC50, OR5AN1 [6]: −4.95

Molecule: muscone
calculated EC50, OR5AN1 [6]: −5.37
calculated EC50, OR5A2 [2, 9]: −5.25

Second part, the molecule after the results:

EC50 [1, 8]: 9.12 µM
EC50 [2, 7]: 5.13 µM
Molecule: c1ncc2c(n1)CCCCCCCCCC2 [Musk 77]

EC50 [6]: 75.9 µM
EC50 [2, 7]: 38 µM
Molecule: O=C1CCCCCCCCCCC(=O)OCCO1 [Musk MC4]

EC50 [6]: 32.4 µM
EC50 [2, 7]: 8.32 µM
Molecule: O=C1CCCCCCCCOCCCCCCO1 [Oxalide T]

EC50 [2]: 17.8 µM
Molecule: C/C(=C\C(C)C)C(C)OC(C)(C)COC(=O)C1CC1 (stereo not shown) [Sylkolide]

EC50 [6]: 87.1 µM
EC50 [2, 7]: 43.7 µM
Molecule: O=C1CCCCCCCCCCCCCCO1 [Thibetolide = Exaltolide]

EC50 [2]: 28.2 µM
Molecule: C=C(C)C1CCC(C)=C1CC(C)(C)COC(=O)CC (stereo not shown) [cyclopentenyl propionate musk]

EC50 [6]: 309 µM
EC50 [2]: 29.5 µM
Molecule: CC1CC(C)(C)C2=C(CC3(C)OC3C2)C1(C)C (stereo not shown) [malaxone]

EC50 [6]: 417 µM
EC50 [2]: 19.5 µM
Molecule: CC1C/C=C\CCCCCCCCC(=O)OCC1 (stereo not shown) [nirvanolide]

calculated EC50, OR5A2 [2, 9]: −3.86
Molecule: Helvetolide

calculated EC50, OR5A2 [2, 9]: −4.72
Molecule: Isoambrettolide

calculated EC50, OR5AN1 [6]: −4.68
calculated EC50, OR5A2 [2, 9]: −5.17
Molecule: ω-6-Hexadecen- lactone

Source: patent US12461089B2, “Olfactory receptor involved in the perception of musk fragrance and the use thereof” (ChemoSensoryX Biosciences SA, priority 2017, dated 2025)
